Where “and” joins values, the source holds several entries; their conditions need not be identical. Identical values can stand only once. Inconclusive results and toxic doses are left out.
System: P388 leukemia ip, CD2F1 mice, survival T/C
Assay: NCI In Vivo Anticancer Drug Screen. Data for tumor model P388 Leukemia (intraperitoneal) in CD2F1 (CDF1) mice
Settings: endpoint: median survival time, higher = longer survival
Method in brief: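 Mice carrying the transplanted tumor received test compound or vehicle. Survival was recorded in each group, and the value is the treated-group measurement divided by that of the vehicle-treated control group.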

[1] = dose: 60.0 mg/kg/injection, schedule: Q01DX005 (ip), vehicle: saline with Tween-80
[2] = dose: 25.0 mg/kg/injection, schedule: Q01DX009 (ip), vehicle: saline with Tween-80
[3] = dose: 50.0 mg/kg/injection, schedule: Q01DX009 (ip), vehicle: saline with Tween-80
[4] = dose: 100.0 mg/kg/injection, schedule: Q01DX009 (ip), vehicle: saline with Tween-80
[5] = dose: 50.0 mg/kg/injection, schedule: Q01DX009 (ip), vehicle: Klucel (hydroxypropylcellulose) (HPC)
[6] = dose: 100.0 mg/kg/injection, schedule: Q01DX009 (ip), vehicle: Klucel (hydroxypropylcellulose) (HPC)
[7] = dose: 200.0 mg/kg/injection, schedule: Q01DX009 (ip), vehicle: Klucel (hydroxypropylcellulose) (HPC)
[8] = dose: 50.0 mg/kg/injection, schedule: Q01DX009 (ip), vehicle: saline
[9] = dose: 100.0 mg/kg/injection, schedule: Q01DX009 (ip), vehicle: saline
[10] = dose: 200.0 mg/kg/injection, schedule: Q01DX009 (ip), vehicle: saline
[11] = dose: 25.0 mg/kg/injection, schedule: Q01DX009 (ip), vehicle: Klucel (hydroxypropylcellulose) (HPC)
[12] = dose: 12.5 mg/kg/injection, schedule: Q01DX005 (ip), vehicle: Klucel (hydroxypropylcellulose) (HPC)
[13] = dose: 25.0 mg/kg/injection, schedule: Q01DX005 (ip), vehicle: Klucel (hydroxypropylcellulose) (HPC)

In the case of `C1=C[N-]c2c3c(ccc2=C1)=CC=C[N-]3.C1=C[N-]c2c3c(ccc2=C1)=CC=C[N-]3.O=[N+]([O-])O.[Cu+]`, the T/C (dose: 1.56 mg/kg/injection, schedule: Q04DX002 (ip), vehicle: saline) is reported as 100 % of control, the T/C (dose: 3.12 mg/kg/injection, schedule: Q04DX002 (ip), vehicle: saline) is reported as 99 % of control and 98 % of control and the T/C (dose: 6.25 mg/kg/injection, schedule: Q04DX002 (ip), vehicle: saline) is reported as 99 % of control and 110 % of control and 98 % of control. The T/C (dose: 12.5 mg/kg/injection, schedule: Q04DX002 (ip), vehicle: saline) was 120 % of control and 97 % of control and the T/C (dose: 25.0 mg/kg/injection, schedule: Q04DX002 (ip), vehicle: saline) was 111 % of control and 97 % of control.
For `O=c1[nH]cc(CSc2ncc[nH]2)c(=O)[nH]1`, the T/C (dose: 30.0 mg/kg/injection, schedule: Q01DX005 (ip), vehicle: saline) was 119 % of control, the T/C [1] was 119 % of control and the T/C (dose: 60.0 mg/kg/injection, schedule: Q01DX005 (ip), vehicle: saline) was 124 % of control.
In the case of `CC1(C)CCCC(C)(C2CCC3(C)C2C(O)CC2C4(C)CCC(O)C(C)(C)C4CCC23C)O1` (stereo unspecified), the T/C (dose: 8.0 mg/kg/injection, schedule: Q01DX009 (ip), vehicle: Klucel (hydroxypropylcellulose) (HPC)) is reported as 101 % of control, the T/C (dose: 16.0 mg/kg/injection, schedule: Q01DX009 (ip), vehicle: Klucel (hydroxypropylcellulose) (HPC)) is reported as 96 % of control and the T/C (dose: 32.0 mg/kg/injection, schedule: Q01DX009 (ip), vehicle: Klucel (hydroxypropylcellulose) (HPC)) is reported as 99 % of control. For the same compound, the T/C (dose: 37.5 mg/kg/injection, schedule: Q01DX009 (ip), vehicle: Klucel (hydroxypropylcellulose) (HPC)) was 103 % of control, the T/C (dose: 64.0 mg/kg/injection, schedule: Q01DX009 (ip), vehicle: Klucel (hydroxypropylcellulose) (HPC)) was 97 % of control and the T/C (dose: 75.0 mg/kg/injection, schedule: Q01DX009 (ip), vehicle: Klucel (hydroxypropylcellulose) (HPC)) was 94 % of control. The T/C (dose: 150.0 mg/kg/injection, schedule: Q01DX009 (ip), vehicle: Klucel (hydroxypropylcellulose) (HPC)) was 100 % of control and the T/C (dose: 300.0 mg/kg/injection, schedule: Q01DX009 (ip), vehicle: Klucel (hydroxypropylcellulose) (HPC)) was 91 % of control.
For `Cc1cccc(C)c1Nc1nnc(-c2ccc(N(C)C)cc2)s1`, the T/C [1] was 86 % of control and the T/C (dose: 120.0 mg/kg/injection, schedule: Q01DX005 (ip), vehicle: saline with Tween-80) was 87 % of control.
With `COC1/C=C/OC2(C)Oc3c(C)c(O)c4c(O)c(c(/C=N/N5CC(C)N(Cc6ccccc6)C(C)C5)c(O)c4c3C2=O)NC(=O)C(C)=C/C=C/C(C)C(O)C(C)C(O)C(C)C(OC(C)=O)C1C` (stereo unspecified) the T/C (dose: 12.5 mg/kg/injection, schedule: Q01DX009 (ip), vehicle: saline with Tween-80) was 113 % of control, the T/C [2] was 109 % of control and the T/C [3] was 118 % of control and 124 % of control. For the same compound, the T/C [4] was 114 % of control.
In the case of `CSc1nccc(=O)n1-c1ccccc1F`, the T/C (dose: 25.0 mg/kg/injection, schedule: Q04DX002 (ip), vehicle: Klucel (hydroxypropylcellulose) (HPC)) is reported as 102 % of control, the T/C (dose: 50.0 mg/kg/injection, schedule: Q04DX002 (ip), vehicle: Klucel (hydroxypropylcellulose) (HPC)) is reported as 104 % of control and the T/C (dose: 100.0 mg/kg/injection, schedule: Q04DX002 (ip), vehicle: Klucel (hydroxypropylcellulose) (HPC)) is reported as 102 % of control.
In the case of `COC(=O)CCC(Cl)(Cl)Cl`, the T/C [5] is reported as 102 % of control, the T/C [6] is reported as 102 % of control and the T/C [7] is reported as 100 % of control.
`Cc1ccc(N2C(=O)c3cccc4c(N)c(S(=O)(=O)O)cc(c34)C2=O)cc1` was tested, and the T/C [8] was 108 % of control, the T/C [9] was 104 % of control and the T/C [10] was 100 % of control.
In the case of `C=CCN(CC=C)CC(C)(O)CNc1cc(OC)cc2cccnc12` (stereo unspecified), the T/C (dose: 50.0 mg/kg/injection, schedule: Q01DX005 (ip), vehicle: saline) is reported as 107 % of control and the T/C (dose: 100.0 mg/kg/injection, schedule: Q01DX005 (ip), vehicle: saline) is reported as 101 % of control.
For `c1ccc(-c2nn[nH]n2)cc1`, the T/C [11] was 100 % of control, the T/C [5] was 100 % of control and the T/C [6] was 118 % of control. For the same compound, the T/C [7] was 100 % of control.
With `CSc1nsc(SC)c1-c1ccc(Cl)cc1` the T/C [5] was 99 % of control, the T/C [6] was 100 % of control and the T/C [7] was 92 % of control.
In the case of `CC(=O)[O][Ge]([c]1ccccc1)([c]1ccccc1)[c]1ccccc1`, the T/C [5] is reported as 107 % of control, the T/C [6] is reported as 107 % of control and the T/C [7] is reported as 107 % of control. The T/C (dose: 400.0 mg/kg/injection, schedule: Q01DX009 (ip), vehicle: Klucel (hydroxypropylcellulose) (HPC)) was 96 % of control.
In the case of `CC(=C/c1cc(C)cc(=O)o1)/C=C/c1ccc(C)c(C)c1C`, the T/C [12] is reported as 97 % of control, the T/C [13] is reported as 97 % of control and the T/C (dose: 50.0 mg/kg/injection, schedule: Q01DX005 (ip), vehicle: Klucel (hydroxypropylcellulose) (HPC)) is reported as 99 % of control and 88 % of control and 90 % of control. For the same compound, the T/C (dose: 200.0 mg/kg/injection, schedule: Q01DX005 (ip), vehicle: Klucel (hydroxypropylcellulose) (HPC)) was 86 % of control and 88 % of control.
For `COc1cc(C)c(S(C)=O)cc1OC` (stereo unspecified), the T/C [8] was 98 % of control, the T/C [9] was 90 % of control and the T/C [10] was 98 % of control.
`CN(C)c1ncnc2c1ccn2C1OC(CO)C(O)C1O` (stereo unspecified) was tested, and the T/C (dose: 6.25 mg/kg/injection, schedule: Q01DX005 (ip), vehicle: Klucel (hydroxypropylcellulose) (HPC)) was 106 % of control, the T/C [12] was 109 % of control and the T/C [13] was 117 % of control.
In the case of `O=C(CC1(O)C(=O)Nc2ccccc21)c1cccc([N+](=O)[O-])c1` (stereo unspecified), the T/C (dose: 60.0 mg/kg/injection, schedule: Q01DX005 (ip), vehicle: Klucel (hydroxypropylcellulose) (HPC)) is reported as 97 % of control, the T/C (dose: 120.0 mg/kg/injection, schedule: Q01DX005 (ip), vehicle: Klucel (hydroxypropylcellulose) (HPC)) is reported as 103 % of control and the T/C (dose: 240.0 mg/kg/injection, schedule: Q01DX005 (ip), vehicle: Klucel (hydroxypropylcellulose) (HPC)) is reported as 99 % of control.
With `O=S(=O)(/N=C1\c2ccccc2/C(=N\S(=O)(=O)c2ccccc2)C2C3C=CC(C3)C12)c1ccccc1` (stereo unspecified) the T/C (dose: 25.0 mg/kg/injection, schedule: Q01DX001 (ip), vehicle: saline with Tween-80) was 115 % of control, the T/C (dose: 50.0 mg/kg/injection, schedule: Q01DX001 (ip), vehicle: saline with Tween-80) was 100 % of control and the T/C (dose: 100.0 mg/kg/injection, schedule: Q01DX001 (ip), vehicle: saline with Tween-80) was 90 % of control.
In the case of `CC(O)C(=O)N1Cc2cc3ccccc3nc2C1` (stereo unspecified), the T/C (dose: 4.0 mg/kg/injection, schedule: Q01DX009 (ip), vehicle: saline with Tween-80) is reported as 94 % of control, the T/C (dose: 8.0 mg/kg/injection, schedule: Q01DX009 (ip), vehicle: saline with Tween-80) is reported as 89 % of control and the T/C (dose: 16.0 mg/kg/injection, schedule: Q01DX009 (ip), vehicle: saline with Tween-80) is reported as 92 % of control. The T/C (dose: 32.0 mg/kg/injection, schedule: Q01DX009 (ip), vehicle: saline with Tween-80) was 90 % of control and the T/C (dose: 64.0 mg/kg/injection, schedule: Q01DX009 (ip), vehicle: saline with Tween-80) was 91 % of control.
With `O=C(Nc1ccccc1C(=O)O)c1cc([N+](=O)[O-])cc([N+](=O)[O-])c1` the T/C [2] was 114 % of control, the T/C [3] was 113 % of control and the T/C [4] was 109 % of control.
With `CP1(=O)CCC2=C1CCc1cc(O)ccc12` (stereo unspecified) the T/C (dose: 6.25 mg/kg/injection, schedule: Q01DX009 (ip), vehicle: Klucel (hydroxypropylcellulose) (HPC)) was 100 % of control, the T/C (dose: 12.5 mg/kg/injection, schedule: Q01DX009 (ip), vehicle: Klucel (hydroxypropylcellulose) (HPC)) was 100 % of control and the T/C [11] was 103 % of control and 106 % of control.
`CC(=O)Oc1cccn(C)c1=O` was tested, and the T/C (dose: 37.5 mg/kg/injection, schedule: Q01DX009 (ip), vehicle: saline) was 108 % of control, the T/C (dose: 75.0 mg/kg/injection, schedule: Q01DX009 (ip), vehicle: saline) was 103 % of control and the T/C (dose: 150.0 mg/kg/injection, schedule: Q01DX009 (ip), vehicle: saline) was 113 % of control. The T/C (dose: 300.0 mg/kg/injection, schedule: Q01DX009 (ip), vehicle: saline) was 119 % of control and the T/C (dose: 500.0 mg/kg/injection, schedule: Q01DX009 (ip), vehicle: saline) was 117 % of control.
For `O=P(N1CCCC1)(N1CC1)N1CC1`, the T/C (dose: 6.25 mg/kg/injection, schedule: Q01DX009 (ip), vehicle: saline) was 109 % of control, the T/C (dose: 8.3 mg/kg/injection, schedule: Q04DX003 (ip), vehicle: saline) was 172 % of control and the T/C (dose: 12.5 mg/kg/injection, schedule: Q01DX009 (ip), vehicle: saline) was 90 % of control. For the same compound, the T/C (dose: 12.5 mg/kg/injection, schedule: Q04DX003 (ip), vehicle: saline) was 209 % of control and the T/C (dose: 18.7 mg/kg/injection, schedule: Q04DX003 (ip), vehicle: saline) was 236 % of control.
